Activity calls are given as the source filed them. The rule behind the calls is not given here. Some results are limits rather than exact numbers.

The test system of series [1] is Hepatitis B virus core protein. Put plainly: Selectivity index, ratio of CC50 for human HepG2 cells to IC50 for Hepatitis B virus core protein expressed in HEK293T cells. The class given is toxicity, cell-based. To be noted: read-out: Ratio CC50/IC50.
Series [2] concerns HepG2. Put plainly: Cytotoxicity against human HepG2 cells measured after 3 days by resazurin staining based analysis. The class given is functional. To be noted: HepG2, 72 h, time 3 day.
In series [3] the target is Core antigen (Hepatitis B virus, UniProt Q03732). In words: Inhibition of Hepatitis B virus core protein expressed in HBC cells derived from HEK293T cells assessed as reduction in HBcAg level incubated for 6 hrs by Nano-glo luciferase assay. The class given is cell-based.
The test system of series [4] is Hepatitis B virus. Put plainly: Antiviral activity against HBV infected in human HePAD38 cells assessed as reduction HBV capsid level at 5 uM media replaced for every 2 to 3 days incubated for 7 days by Western blot analysis. To be noted: time 7.0 day. The class given is functional, organism-based.
In series [5] the test system is Hepatitis B virus. Put plainly: Antiviral activity against HBV infected in human HePAD38 cells assessed as inhibition of HBV capsid assembly by measuring secretion of particles containing HBV DNA at 5 uM incubated for 7 days by Southern blot analysis. To be noted: time 7.0 day. The class given is functional, organism-based.

Core antigen, sequence (Q03732 whole entry): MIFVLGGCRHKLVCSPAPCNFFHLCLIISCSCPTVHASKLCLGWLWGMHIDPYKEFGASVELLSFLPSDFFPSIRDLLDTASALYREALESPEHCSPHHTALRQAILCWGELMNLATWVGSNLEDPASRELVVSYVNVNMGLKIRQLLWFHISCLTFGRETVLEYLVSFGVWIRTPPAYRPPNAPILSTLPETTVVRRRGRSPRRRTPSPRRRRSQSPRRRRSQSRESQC

As to `COc1ccc(Cc2nc3ccccc3n2C[C@H](O)COc2ccccc2)cc1`, the selectivity ratio in series [1] was 6.18. Further, in series [2], half-maximal cytotoxicity (CC50) was put at 15.2 µM. Also, the IC50 in series [3] (read-out: IC50) came out at 2.46 µM.

As for `Brc1ccc(Sc2nc3ccccc3[nH]2)cc1`, the selectivity ratio in series [1] amounted to 7.73. For the same molecule, half-maximal cytotoxicity in series [2] (CC50) was put at 13.9 µM. Further, the IC50 in series [3] (read-out: IC50) was found to be 1.8 µM.

With `COc1ccc(Cc2nc3ccccc3n2CC(=O)COc2ccccc2)cc1`, the selectivity ratio in series [1] was 2.79. In series [2], this molecule returned a CC50 of 10.2 µM. Moreover, the IC50 in series [3] (read-out: IC50) amounted to 3.67 µM.

`COc1ccc(Oc2nc3ccccc3[nH]2)cc1` came in with a CC50 in series [2] of more than 100 µM. Further, the half-maximal inhibitory concentration (IC50) entry in series [3] (hbc) was “Not Active”.

With `Clc1cccc(Sc2nc3ccccc3[nH]2)c1`, the selectivity ratio in series [1] is more than 3.77. This molecule also came in with a CC50 in series [2] of more than 100 µM. In series [3] (read-out: IC50), the IC50 came to 26.5 µM.

`CCCCCn1c(Cc2ccc(OC)cc2)nc2ccccc21`: the selectivity ratio in series [1] was 6.1. Further, it took 46.5 µM to reach half-maximal cytotoxicity in series [2] (CC50). Also, in series [3] (read-out: IC50), the IC50 was found to be 7.63 µM.

Take `COc1ccc(S(=O)(=O)c2nc3ccccc3[nH]2)cc1`: the selectivity ratio in series [1] was 2.42. In series [2], this molecule registered a cytotoxic concentration (CC50) of 65.2 µM. Moreover, in series [3] (read-out: IC50), the IC50 amounted to 26.9 µM.

Turning to `COCC(O)Cn1c(Cc2ccc(OC)cc2)nc2ccccc21` (centres undefined), the selectivity ratio in series [1] is more than 30.1. In addition, in series [2], the CC50 is more than 100 µM. In addition, in series [3] (read-out: IC50), the IC50 amounted to 3.32 µM.

Turning to `COc1ccc(Cc2nc3ccccc3n2CCCBr)cc1`, the selectivity ratio in series [1] was determined as 3.34. In series [2], this molecule yielded a CC50 of 26.2 µM. Moreover, the IC50 in series [3] (read-out: IC50) came to 7.85 µM.

Consider `CCn1c(Cc2ccc(OC)cc2)nc2ccccc21`, for which the selectivity ratio in series [1] was found to be 6.55. This molecule also displayed a CC50 in series [2] of 29.5 µM. The IC50 in series [3] (read-out: IC50) came to 4.51 µM.

For the molecule `COc1ccc(Sc2nc3ccccc3n2C(C)=O)cc1`, in series [1], the selectivity ratio was more than 8.37. Moreover, in series [2], the CC50 is more than 100 µM. For the same molecule, the IC50 in series [3] (read-out: IC50) amounted to 12 µM.

In the case of `OCCn1c(Sc2ccc(F)cc2)nc2ccccc21`, the selectivity ratio in series [1] turned out to be 3.82. For the same molecule, the CC50 in series [2] worked out at 84.7 µM. Also, the IC50 in series [3] (read-out: IC50) came to 22.2 µM.

Regarding `COc1ccc(Cc2nc3ccccc3n2C(C)C)cc1`, the selectivity ratio in series [1] was 0.96. The molecule also came in with a CC50 in series [2] of 37.1 µM. Moreover, the IC50 in series [3] (read-out: IC50) was 41.5 µM.

Take `CCOC(=O)Cn1c(Cc2ccc(OC)cc2)nc2ccccc21`: the selectivity ratio in series [1] amounted to 2.35. Also, in series [2], the midpoint of cytotoxicity, the CC50, lay at 22.1 µM. The 50% inhibitory concentration (IC50) in series [3] (read-out: IC50) was found to be 9.41 µM.

With `COc1ccc(C2(c3nc4ccccc4[nH]3)CC2)cc1`, in series [1], the selectivity ratio was more than 4.58. Moreover, in series [2], the CC50 was more than 100 µM. Moreover, the IC50 in series [3] (read-out: IC50) came to 21.8 µM.

In the case of `COc1ccc(Cc2nc3ccccc3n2CCCNc2ccccc2)cc1`, the selectivity ratio in series [1] came to 9.73. The molecule also returned a CC50 in series [2] of 12.3 µM. For the same molecule, the IC50 in series [3] (read-out: IC50) worked out at 1.26 µM.

Regarding `Clc1ccc(Sc2nc3ccccc3[nH]2)cc1`, the selectivity ratio in series [1] is 4.65. Moreover, it took 13.7 µM to reach half-maximal cytotoxicity in series [2] (CC50). Also, the 50% inhibitory concentration (IC50) in series [3] (read-out: IC50) is 2.94 µM.

With `COc1ccc(Cc2nc3ccccc3n2CC(O)CO)cc1` (centres undefined), in series [1], the selectivity ratio is more than 32.6. The same molecule registered a CC50 in series [2] of more than 100 µM. In addition, in series [3] (read-out: IC50), the IC50 stood at 3.07 µM.

For the molecule `Fc1cccc(Sc2nc3ccccc3[nH]2)c1`, the CC50 in series [2] is more than 100 µM. Moreover, the IC50 result in series [3] (hbc) is “Not Active”.

With `CCCn1c(Cc2ccc(OC)cc2)nc2ccccc21`, in series [1], the selectivity ratio is more than 8.79. The CC50 in series [2] was more than 100 µM. In series [3] (read-out: IC50), the IC50 was determined as 11.4 µM.

In the case of `CCc1ccc(Sc2nc3ccccc3n2CCO)cc1`, in series [1], the selectivity ratio stood at 18.4. Also, the CC50 in series [2] came out at 82.8 µM. Moreover, in series [3] (read-out: IC50), the IC50 turned out to be 4.5 µM.

For the molecule `COc1ccc(Sc2nc3ccccc3n2C)cc1`, the selectivity ratio in series [1] worked out at 4.54. In addition, in series [2], it took 25.8 µM to reach half-maximal cytotoxicity (CC50). For the same molecule, the IC50 in series [3] (read-out: IC50) stood at 5.68 µM.

Turning to `Clc1ccc(Sc2nc3ccccc3[nH]2)cc1Cl`, the selectivity ratio in series [1] was more than 9.03. Also, the CC50 in series [2] was more than 100 µM. In series [3] (read-out: IC50), the IC50 is 11.1 µM.

Consider `COc1ccc(Cc2nc3ccccc3o2)cc1`, for which the selectivity ratio in series [1] is more than 2.76. Further, in series [2], the CC50 was more than 100 µM. In series [3] (read-out: IC50), the half-maximal inhibitory concentration (IC50) was found to be 36.3 µM.

In the case of `COc1ccc(Cc2nc3ccccc3n2C2CCC2)cc1`, in series [1], the selectivity ratio was determined as 3.29. Moreover, in series [2], the midpoint of cytotoxicity, the CC50, lay at 89.6 µM. In addition, the IC50 in series [3] (read-out: IC50) came out at 27.2 µM.

Consider `Fc1cc(F)cc(Sc2nc3ccccc3[nH]2)c1`, for which the selectivity ratio in series [1] is more than 5.07. This molecule also had a CC50 in series [2] of more than 100 µM. Further, the IC50 in series [3] (read-out: IC50) is 19.7 µM.

`Fc1ccc(Sc2nc3ccccc3[nH]2)cc1`: the selectivity ratio in series [1] stood at 1.11. The midpoint of cytotoxicity in series [2], the CC50, lay at 13.3 µM. In series [3] (read-out: IC50), the IC50 was determined as 12 µM.

In the case of `COc1ccc(Cc2nc3ccccc3n2-c2ccccc2)cc1`, in series [2], half-maximal cytotoxicity (CC50) was put at 14.2 µM. Besides, the IC50 in series [3] (read-out: IC50) came to 52.9 µM.

In the case of `CCCCn1c(Cc2ccc(OC)cc2)nc2ccccc21`, in series [1], the selectivity ratio was more than 15.4. Moreover, the CC50 in series [2] was more than 100 µM. For the same molecule, in series [3] (read-out: IC50), the half-inhibitory concentration (IC50) was found to be 6.48 µM.

Regarding `COc1ccc(Cc2nc3ccccc3n2CCCCCCO)cc1`, the selectivity ratio in series [1] came to 9.02. Moreover, the 50% cytotoxic concentration (CC50) in series [2] is 30.3 µM. In addition, the IC50 in series [3] (read-out: IC50) amounted to 3.36 µM. The result in series [4] was Active.

`COc1ccc(Cc2nc3ccccc3n2CCCOc2ccccc2)cc1`: the selectivity ratio in series [1] came to 10.2. The molecule further registered a CC50 in series [2] of 12.7 µM. For the same molecule, the IC50 in series [3] (read-out: IC50) was determined as 1.25 µM.

Take `Cc1ccc(Sc2nc3ccccc3[nH]2)cc1`: the selectivity ratio in series [1] worked out at 8.96. In addition, the CC50 in series [2] was 61 µM. Besides, in series [3] (read-out: IC50), the IC50 was determined as 6.81 µM.

Take `COc1ccc([S+]([O-])c2nc3ccccc3[nH]2)cc1` (centres undefined): the selectivity ratio in series [1] is 0.93. The CC50 in series [2] is 34 µM. For the same molecule, the IC50 in series [3] (read-out: IC50) turned out to be 36.5 µM.

In the case of `COc1ccc(Cc2nc3ccccc3n2CCCO)cc1`, the selectivity ratio in series [1] is more than 24. Further, in series [5], the outcome was Active. The molecule further came in with a CC50 in series [2] of more than 100 µM. Moreover, the IC50 in series [3] (read-out: IC50) was 4.17 µM.

Turning to `OCCn1c(Sc2ccc(Cl)c(Cl)c2)nc2ccccc21`, the selectivity ratio in series [1] was more than 14.3. Besides, the CC50 in series [2] is more than 100 µM. In series [3] (read-out: IC50), the half-maximal inhibitory concentration (IC50) amounted to 7 µM.

On to `COc1ccc(Cc2nc3ccccc3n2CCCOC(C)=O)cc1`, for which the selectivity ratio in series [1] is more than 7.15. Besides, the result in series [5] was Active. The molecule further registered a CC50 in series [2] of more than 100 µM. Also, in series [3] (read-out: IC50), the IC50 turned out to be 14 µM.

`COc1ccc(Cc2nc3ccccc3n2CCCOc2cccnc2)cc1`: the selectivity ratio in series [1] turned out to be 11.1. The 50% cytotoxic concentration (CC50) in series [2] is 13.4 µM. Further, the IC50 in series [3] (read-out: IC50) amounted to 1.21 µM.

For the molecule `CCc1ccc(Sc2nc3ccccc3[nH]2)cc1`, the selectivity ratio in series [1] was found to be 4.37. The CC50 in series [2] was 17.2 µM. For the same molecule, the IC50 in series [3] (read-out: IC50) came out at 3.93 µM.

Consider `COc1ccc(Cc2nc3ccccc3n2C[C@@H](O)COc2ccccc2)cc1`, for which, in series [1], the selectivity ratio worked out at 4.03. Moreover, the CC50 in series [2] is 9.72 µM. For the same molecule, in series [3] (read-out: IC50), the IC50 came to 2.41 µM.

Take `COc1ccc(Cc2nc3ccccc3n2CCCCc2ccccc2)cc1`: the selectivity ratio in series [1] was found to be 1.61. The molecule also gave a CC50 in series [2] of 44.6 µM. Also, the IC50 in series [3] (read-out: IC50) turned out to be 27.7 µM.

Turning to `OCCn1c(Sc2cccc(F)c2)nc2ccccc21`, the selectivity ratio in series [1] is more than 2.03. The molecule further yielded a CC50 in series [2] of more than 100 µM. For the same molecule, the IC50 in series [3] (read-out: IC50) was 49.3 µM.

Turning to `COc1ccc(Nc2nc3ccccc3[nH]2)cc1`, the selectivity ratio in series [1] is 10.7. Further, the midpoint of cytotoxicity in series [2], the CC50, lay at 65.6 µM. Also, the IC50 in series [3] (read-out: IC50) stood at 6.13 µM.

Turning to `COCC(Cn1c(Cc2ccc(OC)cc2)nc2ccccc21)OC` (centres undefined), in series [1], the selectivity ratio was more than 5.06. The molecule further returned a CC50 in series [2] of more than 100 µM. Also, the concentration for half-maximal inhibition (IC50) in series [3] (read-out: IC50) turned out to be 19.8 µM.

The record behind these values is ChEMBL document CHEMBL5512658, “Development of benzimidazole-based compounds as novel capsid assembly modulators for the treatment of HBV infection” (Eur J Med Chem, 2024).
